23 molecules from US10537558B2 (Bantam Pharmaceutical, LLC, priority 2015, dated 2020) can be followed below.

This assay deals with BJAB cells. Put plainly: BJAB cell proliferation (Cell Titer Glo). The format is cell-based. The note with it: Homo sapiens, read-out: EC50. Here is the method: Cells were seeded in white Corning Costar 96-well assay plates at 2500 cells/well in 50 μL of medium. Serial dilutions of test compounds were made in cell culture medium/FBS+0.2% DMSO, and transferred to assay plates in a volume of 50 μL (DMSO at 0.1% final). Plates were maintained at 37° C. for approximately 72 hours. The effect of compounds on cell proliferation was evaluated using the Cell Titer Glo reagent (Promega), according to the manufacturer's instructions. Briefly, 100 μL of reagent was added per well, and after a 10 minute incubation luminescence values were determined on a plate reader (Tecan F200PRO). The percent of luminescence signal relative to untreated controls was calculated for each compound concentration, and EC50 values were determined from dose response data by non-linear regression analysis using Prism (GraphPad). The mTor inhibitor Torin1 (Liu, et al. (2010) J. Med. Chem. 53, 7146.) was used as a control. The data are summarized in the compound table provided above.
Turning to `Cc1nn(-c2nc(-c3cccnc3)c(SC(C)C)s2)c(C(=O)O)c1-c1cc(Cl)cc(Cl)c1` [Compound 30, 4-(3,5-dichlorophenyl)-1-(5-(isopropylthio)-4-(pyridin-3-yl)thiazol-2-yl)-3-methyl-1H-pyrazole-5-carboxylic acid], the EC50 is greater than 25 µM.
Next, `Cc1nn(-c2nc(-c3ccc4nccn4c3)c(SC(C)C)s2)c(C(=O)O)c1-c1cc(Cl)cc(Cl)c1` [Compound 31, 4-(3,5-dichlorophenyl)-1-(4-(imidazo[1,2-a]pyridin-6-yl)-5-(isopropylthio)thiazol-2-yl)-3-methyl-1H-pyrazole-5-carboxylic acid]: greater than 25 µM; `CCC(C)Sc1sc(-n2nc(C)c(-c3cc(Cl)cc(Cl)c3)c2C(=O)OC)nc1-c1ccc(Cl)c(Cl)c1` (centres unmarked) [Compound 32a]: greater than 25 µM.
The same measure for `CCC(C)Sc1sc(-n2nc(C)c(-c3cc(Cl)cc(Cl)c3)c2C(=O)O)nc1-c1ccc(Cl)c(Cl)c1` (centres unmarked) [Compound 32b]: 1 to 5 µM.
Consider `CCC(C)Sc1sc(-n2nc(C)c(-c3cc(C)nc(C)c3)c2C(=O)OC)nc1-c1ccc(Cl)c(Cl)c1` (centres unmarked) [Compound 33a], for which the EC50 is greater than 25 µM.
Next, `CCC(C)Sc1sc(-n2nc(C)c(-c3cc(C)nc(C)c3)c2C(=O)O)nc1-c1ccc(Cl)c(Cl)c1` (centres unmarked) [Compound 33b]: less than 1 µM; `COc1ccccc1-c1nc(-n2nc(C)c(-c3cc(C)nc(C)c3)c2C(=O)O)sc1SC(C)C` [Compound 34, 4-(2,6-dimethylpyridin-4-yl)-1-(5-(isopropylthio)-4-(2-methoxyphenyl)thiazol-2-yl)-3-methyl-1H-pyrazole-5-carboxylic acid]: 5 to 10 µM.
`COc1cccc(-c2nc(-n3nc(C)c(-c4cc(C)nc(C)c4)c3C(=O)O)sc2SC(C)C)c1` [Compound 35, 4-(2,6-dimethylpyridin-4-yl)-1-(5-(isopropylthio)-4-(3-methoxyphenyl)thiazol-2-yl)-3-methyl-1H-pyrazole-5-carboxylic Acid]: the EC50 was 1 to 5 µM.
The same measure for `COc1ccc(-c2nc(-n3nc(C)c(-c4cc(C)nc(C)c4)c3C(=O)O)sc2SC(C)C)cc1` [Compound 36, 4-(2,6-dimethylpyridin-4-yl)-1-(5-(isopropylthio)-4-(4-methoxyphenyl)thiazol-2-yl)-3-methyl-1H-pyrazole-5-carboxylic acid]: 10 to 25 µM; for `Cc1cc(-c2c(C)nn(-c3nc(-c4ccccc4)c(SC(C)C)s3)c2C(=O)O)cc(C)n1` [Compound 37, 4-(2,6-dimethylpyridin-4-yl)-1-(5-(isopropylthio)-4-phenylthiazol-2-yl)-3-methyl-1H-pyrazole-5-carboxylic Acid]: 5 to 10 µM.
For the molecule `Cc1nn(-c2nc(-c3ccc(Cl)c(Cl)c3)c(SC(C)C)s2)c(C(=O)O)c1-c1c(CO)noc1C` [Compound 38, 1-(4-(3,4-dichlorophenyl)-5-(isopropylthio)thiazol-2-yl)-4-(3-(hydroxymethyl)-5-methylisoxazol-4-yl)-3-methyl-1H-pyrazole-5-carboxylic acid], the EC50 is greater than 50 µM.
Next, `COCc1noc(C)c1-c1c(C)nn(-c2nc(-c3ccc(Cl)c(Cl)c3)c(SC(C)C)s2)c1C(=O)O` [Compound 39, 1-(4-(3,4-dichlorophenyl)-5-(isopropylthio)thiazol-2-yl)-4-(3-(methoxymethyl)-5-methylisoxazol-4-yl)-3-methyl-1H-pyrazole-5-carboxylic acid]: 10 to 25 µM.
Next, `Cc1ccc(-c2nc(-n3nc(C)c(-c4cc(C)nc(C)c4)c3C(=O)O)sc2SC(C)C)cc1` [Compound 40, 4-(2,6-dimethylpyridin-4-yl)-1-(5-(isopropylthio)-4-p-tolylthiazol-2-yl)-3-methyl-1H-pyrazole-5-carboxylic acid]: 1 to 5 µM.
The same measure for `Cc1cccc(-c2nc(-n3nc(C)c(-c4cc(C)nc(C)c4)c3C(=O)O)sc2SC(C)C)c1` [Compound 41, 4-(2,6-dimethylpyridin-4-yl)-1-(5-(isopropylthio)-4-m-tolylthiazol-2-yl)-3-methyl-1H-pyrazole-5-carboxylic Acid]: 5 to 10 µM; for `Cc1cc(-c2c(C)nn(-c3nc(-c4ccccc4C)c(SC(C)C)s3)c2C(=O)O)cc(C)n1` [Compound 42, 4-(2,6-dimethylpyridin-4-yl)-1-(5-(isopropylthio)-4-o-tolylthiazol-2-yl)-3-methyl-1H-pyrazole-5-carboxylic acid]: 1 to 5 µM.
Regarding `Cc1nn(-c2nc(-c3ccc(Cl)c(Cl)c3)c(SC(C)C)s2)c(C(=O)O)c1-c1cccnc1` [Compound 44, 1-(4-(3,4-dichlorophenyl)-5-(isopropylthio)thiazol-2-yl)-3-methyl-4-(pyridin-3-yl)-1H-pyrazole-5-carboxylic acid], the half-maximal effective concentration (EC50) fell in the range of 10 to 25 µM.
The same measure for `CSc1sc(-n2nc(C)c(Cc3ccccc3[N+](=O)[O-])c2C(=O)O)nc1-c1ccc(Cl)c(Cl)c1` [Compound 45, 1-(4-(3,4-dichlorophenyl)-5-(methylthio)thiazol-2-yl)-3-methyl-4-(2-nitrobenzyl)-1H-pyrazole-5-carboxylic acid]: 25 to 50 µM; for `Cc1nn(-c2nc(-c3ccc(Cl)c(Cl)c3)c(SC(C)C)s2)c(C(=O)O)c1-c1cccc(CO)c1` [Compound 46, 1-(4-(3,4-dichlorophenyl)-5-(isopropylthio)thiazol-2-yl)-4-(3-(hydroxymethyl)phenyl)-3-methyl-1H-pyrazole-5-carboxylic acid]: 10 to 25 µM; for `Cc1nn(-c2nc(-c3ccc(Cl)c(Cl)c3)c(SC(C)C)s2)c(C(=O)O)c1-c1ccncc1` [Compound 47, 1-(4-(3,4-dichlorophenyl)-5-(isopropylthio)thiazol-2-yl)-3-methyl-4-(pyridin-4-yl)-1H-pyrazole-5-carboxylic Acid]: 5 to 10 µM.
The same measure for `Cc1nn(-c2nc(-c3ccc(Cl)c(Cl)c3)c(SC(C)C)s2)c(C(=O)O)c1-c1cccc(CN)c1` [Compound 48, 4-(3-(aminomethyl)phenyl)-1-(4-(3,4-dichlorophenyl)-5-(isopropylthio)thiazol-2-yl)-3-methyl-1H-pyrazole-5-carboxylic acid]: 25 to 50 µM.
For the molecule `Cc1nn(-c2nc(-c3ccc(Cl)c(Cl)c3)c(SC(C)C)s2)c(C(=O)O)c1-c1ccc(CO)cc1` [Compound 49, 1-(4-(3,4-dichlorophenyl)-5-(isopropylthio)thiazol-2-yl)-4-(4-(hydroxymethyl)phenyl)-3-methyl-1H-pyrazole-5-carboxylic acid], the EC50 is greater than 50 µM.
Next, `Cc1nn(-c2nc(-c3ccc(Cl)c(Cl)c3)c(SC(C)C)s2)c(C(=O)O)c1-c1ccccc1C(F)(F)F` [Compound 50, 1-(4-(3,4-dichlorophenyl)-5-(isopropylthio)thiazol-2-yl)-3-methyl-4-(2-(trifluoromethyl)phenyl)-1H-pyrazole-5-carboxylic acid]: 5 to 10 µM; `Cc1nn(-c2nc(-c3ccc(Cl)c(Cl)c3)c(SC(C)C)s2)c(C(=O)O)c1-c1cccc(C(F)(F)F)c1` [Compound 51, 1-(4-(3,4-dichlorophenyl)-5-(isopropylthio)thiazol-2-yl)-3-methyl-4-(3-(trifluoromethyl)phenyl)-1H-pyrazole-5-carboxylic Acid]: 1 to 5 µM.
